Data published in patent US20230381183A1, “USE OF FOLIC ACID AND FOLATE MODIFICATION IN INDUCING B-CELL IMMUNE TOLERANCE AND TARGETING mIgM-POSITIVELY-EXPRESSED B-CELL LYMPHOMA” (FUDAN UNIVERSITY, priority 2020, published 2023).
Where no end group is shown, it is not given here.

Experiments:
[1] = tested on: antibodies against trastuzumab; test: Serum antibodies against trastuzumab by ELISA; format: in vivo, BALB/c female mice; settings: FA gavage+trastuzumab group: 3 mg free folic acid per day for two weeks, trastuzumab 60 μg/mouse iv days 0, 7, 14; serum day 21
Experimental: For the FA gavage+trastuzumab group, each mouse was administered by gavage with 3 mg free folic acid per day for two weeks, and trastuzumab was administered via tail vein injection at a dose of 60 μg antibody/mouse on days 0, 7 and 14. For the physiological saline group, the mice were injected with physiological saline via tail vein on days 0, 7 and 14. One week after the last administration (day 21), the serum was collected from the mice, and was measured by ELISA for the antibodies against trastuzumab.

[2] = tested on: KLH-specific antibodies; test: Oral folic acid: serum KLH-specific antibodies by ELISA; format: in vivo, BALB/c female mice; settings: FA(ig) group vs physiological saline group; days 21, 28, 35
Experimental: (§1) The BALB/c female mice (5 weeks old) were randomly divided into 4 groups, with 6 mice in each group, and were treated as follows: (1) FA(ig) group: each mouse was administered with 3 mg free folic acid by gavage every day for two weeks: (2) FA(ig)+OVA group: each mouse was administered with 3 mg free folic acid by gavage every day for two weeks, and was administered with OVA via tail vein injection on day 0 and day 7 respectively (10 μg/mouse): (3) OVA group: each mouse was administered with OVA via tail vein injection on days 0 and day 7 respectively (10 μg/mouse); (4) Physiological saline group: each mouse was administered with physiological saline via tail vein injection on day 0 and day 7 respectively. Then, on days 14, 21 and 28, all mice were administered with 100 μl mixed solution of OVA and KLH (hemocyanin) in water (100 μg/mL OVA and 100 ug/mL KLH). The serum was collected before the administration of the mixed solution on days 14, 21 and 28 and on day 35. The specific antibodies in the serum were detected by ELISA. […] The results also confirmed that the immune function of the body recovered when the administration of FA is discontinued.

[3] = tested on: antibodies against sLip; test: Serum antibodies against liposomes (sLip) by ELISA; format: in vivo, BALB/c female mice; settings: mixed solution of liposome 5 mg/kg and 10 μg or 50 μg FA, single dose tail vein; serum 5 days after
Experimental: Liposomes (sLip) were prepared firstly. HSPC. Chol and mPEG2000-DSPE (all purchased from AVT (Shanghai) Pharmaceutical Tech Co., Ltd.) were weighted in a molar ratio of 52:43:5. The film materials were dissolved in 5 mL chloroform, and the mixture was subjected to rotary evaporation under reduced pressure to remove chloroform, to obtain a uniform lipid film. Residual organic solvent was removed by vacuum drying overnight. Shaking in a water bath at 60° C. was performed until the liposome membrane is completely hydrated to obtain white liposome suspension. The liposome suspension went through 200 and 100 nuclear pore membrane by a micro-extruder sequentially, to obtain a liquid with pale blue opalescence, i.e., a liposome (sLip) solution.
The BALB/c female mice (6 weeks old) were randomly divided into sLip group, sLip+FA (10 μg) group, sLip+FA (50 μg) group and physiological saline group, with 4 mice in each group. For the sLip group, the liposome solution (5 mg liposome/kg mouse body weight) was administered in a single dose via tail vein. For sLip+FA([…]) group, a mixed solution of liposome (5 mg liposome/kg mouse body weight) and 10 μg FA was administered in a single dose via tail vein. […] Serum was collected from all mice 5 days after administration, and was measured by ELISA for the concentrations of the antibodies against sLip.

[4] = tested on: OVA-specific IgG; test: Oral folic acid: serum OVA-specific IgG by ELISA; format: in vivo, BALB/c female mice
Experimental: as §1, with “The” for “The results also confirmed that the”

[5] = Water solubility (observation on preparation); format: physicochemical
[6] = tested on: antibodies against infliximab; test: Serum antibodies against infliximab by ELISA; format: in vivo, BALB/c female mice; settings: FA gavage+infliximab group: 3 mg free folic acid per day for two weeks, infliximab 60 μg/mouse iv days 0, 7, 14; serum day 21
Experimental: The BALB/c female mice (6 weeks old) were randomly divided into infliximab group, FA gavage+infliximab group and physiological saline group, with 5 mice in each group. For the infliximab group, a dose of 60 μg antibody/mouse was administrated via tail vein injection on days 0, 7 and 14. For the FA gavage+infliximab group, each mouse was administered with 3 mg free folic acid by gavage per day for two weeks, and infliximab was administered via tail vein injection at a dose of 60 μg antibody/mouse on days 0, 7 and 14. For the physiological saline group, the mice were injected with physiological saline via tail vein on days 0, 7 and 14. One week after the last administration (day 21), the serum was collected from the mice, and was measured by ELISA for the antibodies against infliximab.

[7] = tested on: experimental autoimmune encephalomyelitis (EAE) model; test: Experimental autoimmune encephalomyelitis (EAE) model; format: in vivo, female C57/BL6 mice; settings: 10 μg/mouse iv once a week x3 before PLP emulsion induction
Experimental: The efficacy of folate modification in autoimmune encephalomyelitis was investigated using an experimental autoimmune encephalomyelitis (EAE) model. The model was established as follows: the animals were injected with whole protein or protein fragment (e.g., PLP polypeptide) that induces nerve cell myelin sheath and peripheral protein, causing inflammation and demyelination symptoms and inducing the autoimmune response of the animal: thereby the injected self-proteins are regarded as foreign objects and cause the immune system to attack the self myelin sheath.
The female C57/BL6 mice were intravenously injected with PLP polypeptide (amino acid sequence. […]) or folate-PLP complex (FA-PLP) at a dose of 10 μg/mouse, once a week for three times in total. One week later, the emulsion of PLP polypeptide in Freund's complete adjuvant was prepared, the concentration of PLP being 1 μg/μL. Four points were set up on both sides of the back of the mouse, and 0.05 mL PLP emulsion was injected subcutaneously at each point to induce inflammation, 2 and 24 hours after PLP injection, 150 ng pertussis toxin was injected intraperitoneally. The incidence in the mice was observed every day, and the mice were scored according to the 5-point scoring standard (Kono method). The incidence scoring curve was plotted.

[8] = tested on: Anti-Drug Antibodies (ADAs); settings: phase I single-dose study, healthy subjects; cited from earlier work

## Nc1nc2ncc(CNc3ccc(C(=O)N[C@@H](CCC(=O)O)C(=O)O)cc3)nc2c(=O)[nH]1 [folic acid]
[1]
  level of antibodies against trastuzumab: significantly lower than that in the trastuzumab group
[2]
  levels of KLH-specific antibodies in serum: similar
[3]
  production of the antibodies against liposomes (sLip): effectively reduce the production of the antibodies against liposomes, and the effect increases as the concentration of folic acid increases
[4]; day 28, FA(ig)+OVA group, after FA discontinued
  level of OVA-specific IgG in the serum: comparable to that in the OVA group
[4]; days 14 and 21, FA(ig)+OVA group: 3 mg free folic acid by gavage daily for two weeks, OVA 10 μg/mouse iv day 0 and 7
  level of OVA-specific IgG in the serum: significantly lower than that in the OVA group
[5]
  water solubility: insoluble in water
[6]
  level of antibodies against infliximab: significantly lower than that in the infliximab group

## FA-PLP: folate-modified PLP polypeptide HSLGKWLGHPDKF (also: folate conjugate, site not given here)
[7]
  immune tolerance to PLP / inflammatory response (incidence score, Kono method): causes the body's immune tolerance to PLP and contributes to reducing the inflammatory response

## adalimumab
[8]
  incidence of ADAs: 70-100%
